Measurements from ChEMBL document CHEMBL1938345, “Design, synthesis and cytotoxic activity of novel spin-labeled rotenone derivatives” (Bioorg Med Chem Lett, 2012).
Values after ≈ are worked out from the molar mass of the structure shown.

Key:
Type in all cases: functional, cell-based
A549 = test: Cytotoxicity against human A549 cells by SRB assay
KB = test: Cytotoxicity against human KB cells by SRB assay
[1] = Cytotoxicity against human KBVIN cells by SRB assay
DU-145 = test: Cytotoxicity against human DU145 cells by SRB assay
[2] = Homo sapiens, KB, read-out: IC50
[3] = Homo sapiens, KBVIN, read-out: IC50
[4] = Homo sapiens, DU-145, read-out: IC50

| SMILES | IC50 (A549; a549) [µg/mL] | IC50 (KB; kb) [µg/mL] | IC50 ([1]; kbvin) [µg/mL] | IC50 (DU-145; du-145) [µg/mL] | IC50 (KB; [2]) [µg/mL] | IC50 [1, 3] [µg/mL] | IC50 (DU-145; [4]) [µg/mL] | IC50 (A549; Homo sapiens, A549, read-out: IC50) [µg/mL] |
| --- | --- | --- | --- | --- | --- | --- | --- | --- |
| C=C(C)[C@H]1Cc2c(ccc3c2O[C@@H]2COc4cc(OC)c(OC)cc4[C@@H]2/C3=N\OC(=O)C2CC(C)(C)N([O])C2(C)C)O1 (some centres not stated) | 0.471 (≈ 0.815 µM) | 0.56 (≈ 0.969 µM) | 0.298 (≈ 0.516 µM) | 0.322 (≈ 0.557 µM) | – | – | – | – |
| C=C(C)[C@H]1Cc2c(ccc3c2O[C@@H]2COc4cc(OC)c(OC)cc4[C@@H]2[C@@H]3OC(=O)[C@@H](NC(=O)OC2CC(C)(C)N([O])C(C)(C)C2)C(C)CC)O1 (some centres not stated) | 0.649 (≈ 0.917 µM) | 0.516 (≈ 0.729 µM) | 0.399 (≈ 0.564 µM) | 0.396 (≈ 0.559 µM) | – | – | – | – |
| C=C(C)[C@H]1Cc2c(ccc3c2O[C@@H]2COc4cc(OC)c(OC)cc4[C@@H]2[C@@H]3OC(=O)[C@H](C)NC(=O)OC2CC(C)(C)N([O])C(C)(C)C2)O1 | 0.65 (≈ 0.976 µM) | 0.442 (≈ 0.664 µM) | 0.357 (≈ 0.536 µM) | 0.417 (≈ 0.626 µM) | – | – | – | – |
| CC(=O)O[C@H]1C(=O)[C@@]2(C)[C@H]([C@H](OC(=O)c3ccccc3)[C@]3(O)C[C@H](OC(=O)[C@H](O)[C@@H](NC(=O)c4ccccc4)c4ccccc4)C(C)=C1C3(C)C)[C@]1(OC(C)=O)CO[C@@H]1C[C@@H]2O [PACLITAXEL] | – | – | – | – | 0.0048 (≈ 0.00562 µM) | 1.15 (≈ 1.34 µM) | 0.0037 (≈ 0.00433 µM) | – |
| C=C(C)[C@H]1Cc2c(ccc3c2O[C@@H]2COc4cc(OC)c(OC)cc4[C@@H]2[C@@H]3OC(=O)[C@H](Cc2ccccc2)NC(=O)OC2CC(C)(C)N([O])C(C)(C)C2)O1 | 0.713 (≈ 0.961 µM) | 0.509 (≈ 0.686 µM) | 0.383 (≈ 0.516 µM) | 0.462 (≈ 0.623 µM) | – | – | – | – |
| C=C(C)[C@H]1Cc2c(ccc3c2O[C@@H]2COc4cc(OC)c(OC)cc4[C@@H]2[C@@H]3OC(=O)[C@H](CC(C)C)NC(=O)OC2CC(C)(C)N([O])C(C)(C)C2)O1 | 0.521 (≈ 0.736 µM) | 0.483 (≈ 0.682 µM) | 0.355 (≈ 0.502 µM) | 0.443 (≈ 0.626 µM) | – | – | – | – |
| C=C(C)[C@H]1Cc2c(ccc3c2O[C@@H]2COc4cc(OC)c(OC)cc4[C@@H]2/C3=N\OC(=O)C2=CC(C)(C)N([O])C2(C)C)O1 | 0.738 (≈ 1.28 µM) | 0.633 (≈ 1.1 µM) | 0.62 (≈ 1.08 µM) | 0.426 (≈ 0.74 µM) | – | – | – | – |
| C=C(C)[C@H]1Cc2c(ccc3c2O[C@@H]2COc4cc(OC)c(OC)cc4[C@@H]2[C@@H]3OC(=O)C2CC(C)(C)N([O])C(C)(C)C2)O1 | 0.523 (≈ 0.904 µM) | 0.408 (≈ 0.705 µM) | 0.092 (≈ 0.159 µM) | 0.266 (≈ 0.46 µM) | – | – | – | – |
| C=C(C)[C@H]1Cc2c(ccc3c2O[C@@H]2COc4cc(OC)c(OC)cc4[C@@H]2[C@@H]3OC(=O)C2=CC(C)(C)N([O])C2(C)C)O1 | 0.408 (≈ 0.725 µM) | 0.273 (≈ 0.485 µM) | 0.075 (≈ 0.133 µM) | 0.223 (≈ 0.396 µM) | – | – | – | – |
| C=C(C)[C@H]1Cc2c(ccc3c2O[C@@H]2COc4cc(OC)c(OC)cc4[C@@H]2C3=O)O1 [ROTENONE] | – | – | – | – | 0.513 (≈ 1.3 µM) | 0.595 (≈ 1.51 µM) | 0.465 (≈ 1.18 µM) | 0.901 (≈ 2.28 µM) |
| C=C(C)[C@H]1Cc2c(ccc3c2O[C@@H]2COc4cc(OC)c(OC)cc4[C@@H]2[C@@H]3OC(=O)CNC(=O)OC2CC(C)(C)N([O])C(C)(C)C2)O1 | 0.624 (≈ 0.957 µM) | 0.51 (≈ 0.783 µM) | 0.41 (≈ 0.629 µM) | 0.45 (≈ 0.69 µM) | – | – | – | – |
| C=C(C)[C@H]1Cc2c(ccc3c2O[C@@H]2COc4cc(OC)c(OC)cc4[C@@H]2[C@@H]3OC(=O)C2=CC(C)(C)N([O])C(C)(C)C2)O1 | 0.578 (≈ 1 µM) | 0.427 (≈ 0.74 µM) | 0.299 (≈ 0.518 µM) | 0.322 (≈ 0.558 µM) | – | – | – | – |
| C=C(C)[C@H]1Cc2c(ccc3c2O[C@@H]2COc4cc(OC)c(OC)cc4[C@@H]2/C3=N\OC(=O)C2CC(C)(C)N([O])C(C)(C)C2)O1 | 0.651 (≈ 1.1 µM) | 0.523 (≈ 0.884 µM) | 0.358 (≈ 0.605 µM) | 0.488 (≈ 0.825 µM) | – | – | – | – |
| C=C(C)[C@H]1Cc2c(ccc3c2O[C@@H]2COc4cc(OC)c(OC)cc4[C@@H]2[C@@H]3OC(=O)[C@H](Cc2c[nH]c3ccccc23)NC(=O)OC2CC(C)(C)N([O])C(C)(C)C2)O1 | 0.631 (≈ 0.808 µM) | 0.565 (≈ 0.724 µM) | 0.414 (≈ 0.53 µM) | 0.477 (≈ 0.611 µM) | – | – | – | – |
| C=C(C)[C@H]1Cc2c(ccc3c2O[C@@H]2COc4cc(OC)c(OC)cc4[C@@H]2[C@@H]3OC(=O)[C@@H](NC(=O)OC2CC(C)(C)N([O])C(C)(C)C2)C(C)C)O1 | 0.615 (≈ 0.886 µM) | 0.497 (≈ 0.716 µM) | 0.381 (≈ 0.549 µM) | 0.451 (≈ 0.65 µM) | – | – | – | – |
| C=C(C)[C@H]1Cc2c(ccc3c2O[C@@H]2COc4cc(OC)c(OC)cc4[C@@H]2/C3=N\OC(=O)C2=CC(C)(C)N([O])C(C)(C)C2)O1 | 0.542 (≈ 0.919 µM) | 0.575 (≈ 0.975 µM) | 0.162 (≈ 0.275 µM) | 0.358 (≈ 0.607 µM) | – | – | – | – |
| C=C(C)[C@H]1Cc2c(ccc3c2O[C@@H]2COc4cc(OC)c(OC)cc4[C@@H]2[C@@H]3OC(=O)C2CC(C)(C)N([O])C2(C)C)O1 (some centres not stated) | 0.533 (≈ 0.944 µM) | 0.443 (≈ 0.785 µM) | 0.241 (≈ 0.427 µM) | 0.277 (≈ 0.491 µM) | – | – | – | – |
